1 substance from paper PMC11865978, “Cellular Activity of CQWW Nullomer-Derived Peptides” (ACS Omega, 2025) can be followed below.

What all share (type): cell-based, human
For assay [1], the system named is GCGR-E13. As to conditions: 72 h. As to the method:
(§1) Peptides were tested in an automated image-based high-content[42] cell painting[43],[44] assay that was originally developed to explore the mechanism of action of pharmacological and genetic perturbations within cells,[45] as well as a live cell imaging assay against six patient-derived glioblastoma cell lines (GCGR-E13, GCGR-E28, GCGR-E21, GCGR-E57, GCGR-E31, and GCGR-E34), covering classical, mesenchymal, and proneural subtypes, respectively (see Methods and Figure 1B–D), along with a healthy human fetal neuronal stem cell line (GCGR-NS9FB_B).
(§2) Cell survival was quantified by nuclei counts from the Hoechst dye-stained nuclei and IC50 values calculated along with 95% confidence intervals (Figure 1B; see Table S2 for full details). […]
(§3) High Content Phenotypic Screening assays
(§4) Cell lines (glioma stem cell lines and normal foetal neural stem cells) were seeded on laminin (10 µg/mL) coated 384-well plates (Greiner Bio-One, 781091) at 1,000 cells/well and incubated overnight at 37 °C and 5% CO2. Aqueous peptide solutions (10 mM) were further diluted to 1 mM in water containing 10 % glycerol and 0.01 % TX-100. […]
(§5) The cells were placed in an IncuCyte live cell imager (Essen BioScience) and imaged every three hours for 72 hours. Prior to fixation, the plates were removed from the IncuCyte and stained with Mitrotracker DeepRed (Invitrogen, M22426, 300 nM, 30 minutes). Cells were then fixed using 4 % formaldehyde and permeabilized with 0.1 % TX-100 in PBS. The cells were stained with ‘Cell Painting’ […]
(§6) assay reagents1: Hoechst 33342 (10 mg/mL stock, Molecular Probes, 1:5000), SYTO14 […]
(§7) BSA/PBS. The plates were imaged using an ImageXpress high content microscope (Molecular Devices). Cells were imaged with a 20× objective, covering 6 fields-of-view in each well. The data was then analyzed using a custom CellProfiler software pipeline using the University of Edinburgh high performance computing cluster. Dose response plots were calculated using HC StratomineR (corelifeanalytics.com). Nuclei count data was analyzed separately to generate cell survival metrics (normalized to aqueous glycerol/TX -100 control). […]

Another assay relates to GCGR-E21. Particulars: 72 h. As for the experimental part: as §1, §2, §3, §4, §5, §6, §7
The next assay has as its system GCGR-E34. As to conditions: 72 h. As to the method:
as §1, §2, §3, §4, §5, §6, §7

In a further assay the test system is GCGR-E28. As to conditions: 72 h. As for the experimental part:
as §1, §2, §3
(§8) Cell lines (glioma stem cell lines and normal foetal neural stem cells) were seeded on laminin (10 µg/mL) coated 384-well plates (Greiner Bio-One, 781091) at 1,000 cells/well and incubated overnight at 37 °C and 5% CO2. Aqueous peptide solutions (10 mM) were further diluted to 1 mM in water containing 10 % glycerol and 0.01 % TX-100. Cells were dosed using a D300 digital dispenser (Tecan) by 10-point dose response (30 µM – 1 µM) in triplicate and with aqueous glycerol/TX-100 as control. The cells were placed in an IncuCyte live cell imager (Essen BioScience) and imaged every three hours for 72 hours. Prior to fixation, the plates were removed from the IncuCyte and stained with Mitrotracker DeepRed (Invitrogen, M22426, 300 nM, 30 minutes). Cells were then fixed using 4 % formaldehyde and permeabilized with 0.1 % TX-100 in PBS. The cells were stained with ‘Cell Painting’ […]
as §6, §7

The next assay concerns GCGR-E31. As to conditions: 72 h. As to the method: as §1, §2, §3, §8, §6, §7
The next assay concerns GCGR-E57. Particulars: 72 h. As for the experimental part:
as §1, §2, §3, §8, §6, §7

The test system of the next assay is GCGR-NS9FB_B. Particulars: 72 h. As to the method:
as §1, §2, §3, §8, §6, §7

Assay [2] concerns patient-derived glioblastoma cell lines. The experiment in a line: Cell survival by nuclei counts, summarised across cell lines. As to conditions: ratio of nuclei-count IC50s. As to the method:
as §1, §2, §3
Cell lines (glioma stem cell lines and normal foetal neural stem cells) were seeded on laminin (10 µg/mL) coated 384-well plates (Greiner Bio-One, 781091) at 1,000 cells/well and incubated overnight at 37 °C and 5% CO2. […]
BSA/PBS. […] The data was then analyzed using a custom CellProfiler software pipeline using the University of Edinburgh high performance computing cluster. Dose response plots were calculated using HC StratomineR (corelifeanalytics.com). Nuclei count data was analyzed separately to generate cell survival metrics (normalized to aqueous glycerol/TX -100 control). […]

The test system of assay [3] is GCGR-E13. The experiment in a line: Multiparametric cell painting phenotypic profile (PCA). As to conditions: 1-16 μM, compared with control polyarginine peptide 15 and DMSO. As for the experimental part: Figure 1 (A) 3D model of the CQWW peptide with residue labels shown in red. (B) Dose-dependent effect of peptide 2 (RRRRRCQWW) on cell survival across a range of cell lines, with fitted IC50 values shown below. (C) Representative live cell brightfield images of peptide 2 (RRRRRCQWW, 6 μM) against the glioblastoma stem cell line (GCGR-E28) versus normal neural stem cells (GCGR-NS9FB_B) after 3 h of incubation. (D) 3D principal component analysis (PCA 1, 2, and 3) from multiparametric cell painting image analysis of the GCGR-E13 cell line. […]
The phenotypic effect of the peptides was visualized by live cell imaging (Figure 1C, IncuCyte live cell imager) and also quantified via image analysis of cells labeled with the cell painting reagents (see Supporting Information) followed by image analysis using Cell Profiler (cellprofiler.org). […]
BSA/PBS. […] The data was then analyzed using a custom CellProfiler software pipeline using the University of Edinburgh high performance computing cluster. Dose response plots were calculated using HC StratomineR (corelifeanalytics.com). Nuclei count data was analyzed separately to generate cell survival metrics (normalized to aqueous glycerol/TX -100 control).
Dose response curves were fitted and IC50 values calculated using Prism GraphPad (graphpad.com). […]

As to H-RRRRRCQWW-NH2 [Peptide 2], the half-inhibitory concentration (IC50) in the assay on GCGR-E13 [1] was 4.4 µM; in the assay on GCGR-E21, 4.8 µM; in the assay on GCGR-E34 it was 5.2 µM; with GCGR-E28, 5.4 µM; in the assay on GCGR-E31 it was 5.1 µM; in the assay on GCGR-E57 it was 4.3 µM. Further, it took 7.9 µM to reach half-maximal inhibition with GCGR-NS9FB_B (IC50). The “selectivity for reduction in nuclei counts, glioblastoma stem cells compared to normal neural stem cells (GCGR-NS9FB_B)” value in assay [2] was 1.5- to 2 fold. Besides, the “phenotypic profile in 3D principal component plot of cell painting features” value in the assay with GCGR-E13 [3] was “strong, dose-dependent phenotype”.

As a reminder, the IC50 is the midpoint of a concentration-inhibition curve. A lower IC50 goes with inhibition by little substance.
